{"source": "ChEMBL document CHEMBL4393679", "about": "“Structure-Guided Drug Design of 6-Substituted Adenosine Analogues as Potent Inhibitors of Mycobacterium tuberculosis Adenosine Kinase” (J Med Chem, 2019)", "key": {"[1]": {"target": "Adenosine kinase (Mycobacterium tuberculosis (strain ATCC 25618 / H37Rv)) (UniProt P9WID5)", "sequence (P9WID5 2-324 limits assumed)": "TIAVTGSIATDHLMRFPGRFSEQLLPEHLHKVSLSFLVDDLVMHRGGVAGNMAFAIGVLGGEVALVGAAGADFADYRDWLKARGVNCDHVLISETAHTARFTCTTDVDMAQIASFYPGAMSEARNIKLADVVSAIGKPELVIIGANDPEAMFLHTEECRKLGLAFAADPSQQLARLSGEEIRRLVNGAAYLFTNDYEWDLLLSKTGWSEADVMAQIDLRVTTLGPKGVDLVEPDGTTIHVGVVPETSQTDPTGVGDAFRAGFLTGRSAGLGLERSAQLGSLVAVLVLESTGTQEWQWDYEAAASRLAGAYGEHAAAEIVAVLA", "assay": "Competitive-inhibition of wild-type N-terminal TEV cleavage site-fused/His-tagged Mycobacterium tuberculosis H37Rv adenosine kinase expressed in Escherichia coli BL21 (DE3) using varying levels of adenosine as substrate in presence of ATP and PEP by pyruvate kinase-lactate dehydrogenase-coupled UV-vis spectrophotometric based Cheng-Prusoff equation analysis"}, "[2]": {"assay": "Toxicity in ND4 Swiss Webster mouse assessed as change in body weight at 50 to 200 mg/kg, po administered once daily via gavage for 3 days measured twice daily during compound dosing", "assay_type": "organism-based", "conditions": "in vivo, 72 h"}, "[3]": {"assay": "Toxicity in ND4 Swiss Webster mouse at 10 mg/kg, po administered as single dose via gavage", "assay_type": "organism-based", "conditions": "in vivo"}, "[4]": {"assay": "Toxicity in ND4 Swiss Webster mouse at 50 to 200 mg/kg, po administered once daily via gavage for 3 days measured twice daily during compound dosing", "assay_type": "organism-based", "conditions": "in vivo, 72 h"}, "[5]": {"target": "Adenosine kinase (Mycobacterium tuberculosis (strain ATCC 25618 / H37Rv)) (UniProt P9WID5)", "assay": "Inhibition of wild-type N-terminal TEV cleavage site-fused/His-tagged Mycobacterium tuberculosis H37Rv adenosine kinase expressed in Escherichia coli BL21 (DE3) at 12.5 uM using adenosine as substrate in presence of ATP and PEP by pyruvate kinase-lactate dehydrogenase coupled UV-vis spectrophotometric method relative to control"}}, "note": "Activity calls are given as the source filed them. The calls are words filed in the database; no cut-off is given here.", "data": [{"compound": "OC[C@H]1O[C@@H](n2cnc3c(N4CCN(c5ccc(-c6ccccc6)cc5)CC4)ncnc32)[C@H](O)[C@@H]1O", "values": [{"measurement": "inhibition", "setting": "[1]", "result": "Active"}, {"measurement": "Activity", "setting": "[2]", "result": "Non-Toxic"}, {"measurement": "Activity", "setting": "[3]", "result": "Non-Toxic"}, {"measurement": "Activity", "setting": "[4]", "result": "Non-Toxic"}]}, {"compound": "Cc1ccc(S(=O)(=O)NC[C@H]2O[C@@H](n3cnc4c(N5CCN(c6ccc(C(F)(F)F)cc6)CC5)ncnc43)[C@H](O)[C@@H]2O)cc1", "values": [{"measurement": "inhibition", "setting": "[5]", "result": 53, "unit": "%"}]}]}
